Reference: patent US9079922B2, “2-oxo-oxazolidin-3,5-diyl antibiotic derivatives” (priority 2011, dated 2015)
≈ marks a conversion by molar mass, not a printed value.

What was measured:
[1] = test system: Acinetobacter baumanii T6474; experiment: Bacterial growth minimal inhibitory concentration (microdilution, cation-adjusted Mueller-Hinton Broth); format: cell-based; settings: Acinetobacter baumannii, multiply-resistant strain, in particular quinolone resistant
Description: (§1) Bacterial Growth Minimal Inhibitory Concentrations:
(§2) Minimal inhibitory concentrations (MICs; mg/l) were determined in cation-adjusted Mueller-Hinton Broth by a microdilution method following the description given in “Methods for Dilution Antimicrobial Susceptibility Tests for Bacteria that Grow Aerobically”, Approved standard, 7th ed., Clinical and Laboratory Standards Institute (CLSI) Document M7-A7, Wayne, Pa., USA, 2006.
(§3) All Example compounds were tested against several Gram positive and Gram negative bacteria. Staphylococcus aureus A798 and Acinetobacter baumanii T6474 are multiply-resistant strains, in particular quinolone resistant.

[2] = test system: Staphylococcus aureus A798; experiment: as above; format: cell-based; settings: multiply-resistant strain, in particular quinolone resistant, read-out: MIC for S. aureus A798
Description: as §1, §2, §3

MIC [1]	MIC [2]	Structure (SMILES)
≤ 0.016 µg/mL	≤ 0.016 µg/mL	O=C1COc2ccc(N3C[C@H](CNC4CCN(c5nc6c(cc5F)c(=O)c(C(=O)O)cn6C5CC5)CC4)OC3=O)nc2N1 [Example 20, 1-cyclopropyl-6-fluoro-4-oxo-7-(4-{[(S)-2-oxo-3-(3-oxo-3,4-dihydro-2H-pyrido[3,2-b][1,4]oxazin-6-yl)-oxazolidin-5-ylmethyl]-amino}-piperidin-1-yl)-1,4-dihydro-[1,8]naphthyridine-3-carboxylic acid]
≤ 0.016 µg/mL	≤ 0.016 µg/mL	O=C1COc2ccc(N3C[C@H](CNC4CCN(c5nc6c(cc5F)c(=O)c5c(O)nsc5n6C5CC5)CC4)OC3=O)nc2N1 [Example 23, 9-cyclopropyl-6-fluoro-3-hydroxy-7-(4-{[(S)-2-oxo-3-(3-oxo-3,4-dihydro-2H-pyrido[3,2-b][1,4]oxazin-6-yl)-oxazolidin-5-ylmethyl]-amino}-piperidin-1-yl)-9H-1-thia-2,8,9-triaza-cyclopenta[b]naphthalen-4-one]
0.063 µg/mL (≈ 0.106 µM)	≤ 0.016 µg/mL	O=C1COc2ccc(N3C[C@H](CNC4CN(c5nc6c(cc5F)c(=O)c5c(O)nsc5n6C5CC5)C4)OC3=O)nc2N1 [Example 24, 9-cyclopropyl-6-fluoro-3-hydroxy-7-(3-{[(S)-2-oxo-3-(3-oxo-3,4-dihydro-2H-pyrido[3,2-b][1,4]oxazin-6-yl)-oxazolidin-5-ylmethyl]-amino}-azetidin-1-yl)-9H-1-thia-2,8,9-triaza-cyclopenta[b]naphthalen-4-one]

The next lines start with the compound.

Structure (SMILES)	MIC [1]	MIC [2]
O=C1COc2ccc(N3C[C@H](CNC[C@@H]4CCN(c5nc6c(cc5F)c(=O)c(C(=O)O)cn6C5CC5)C4)OC3=O)nc2N1 [Example 22, 1-cyclopropyl-6-fluoro-4-oxo-7-[(S)-3-({[(S)-2-oxo-3-(3-oxo-3,4-dihydro-2H-pyrido[3,2-b][1,4]oxazin-6-yl)-oxazolidin-5-ylmethyl]-amino}-methyl)-pyrrolidin-1-yl]-1,4-dihydro-[1,8]naphthyridine-3-carboxylic acid]	0.031 µg/mL (≈ 0.0522 µM)	0.125 µg/mL (≈ 0.211 µM)
O=C1COc2ccc(N3C[C@H](CN4CCN(c5nc6c(cc5F)c(=O)c5c(O)nsc5n6C5CC5)CC4)OC3=O)nc2N1 [Example 25, 9-cyclopropyl-6-fluoro-3-hydroxy-7-{4-[(S)-2-oxo-3-(3-oxo-3,4-dihydro-2H-pyrido[3,2-b][1,4]oxazin-6-yl)-oxazolidin-5-ylmethyl]-piperazin-1-yl}-9H-1-thia-2,8,9-triaza-cyclopenta[b]naphthalen-4-one]	0.125 µg/mL (≈ 0.205 µM)	≤ 0.016 µg/mL
